We go through 2 compounds from publication PMC7856035 (Neuropharmacology, 2020).

Each structure is given as a SMILES string.

What is called IC50 is the concentration that gives 50% inhibition. The EC50 is the midpoint of the concentration-response curve.

The target of test [1] is T1, 5-HT4 receptor (Rattus norvegicus, UniProt Q62758). Kind of test: block of […] 5-HT-induced PKA-RII phosphorylation in rat DRG neurons. Type of test: cell-based.
Test [2] has as its target T1, 5-HT4 receptor. In words: agonist-induced PKA-RII phosphorylation in rat DRG neurons, reduced by GR113808. Type of test: cell-based.

T1 sequence (Q62758 whole entry): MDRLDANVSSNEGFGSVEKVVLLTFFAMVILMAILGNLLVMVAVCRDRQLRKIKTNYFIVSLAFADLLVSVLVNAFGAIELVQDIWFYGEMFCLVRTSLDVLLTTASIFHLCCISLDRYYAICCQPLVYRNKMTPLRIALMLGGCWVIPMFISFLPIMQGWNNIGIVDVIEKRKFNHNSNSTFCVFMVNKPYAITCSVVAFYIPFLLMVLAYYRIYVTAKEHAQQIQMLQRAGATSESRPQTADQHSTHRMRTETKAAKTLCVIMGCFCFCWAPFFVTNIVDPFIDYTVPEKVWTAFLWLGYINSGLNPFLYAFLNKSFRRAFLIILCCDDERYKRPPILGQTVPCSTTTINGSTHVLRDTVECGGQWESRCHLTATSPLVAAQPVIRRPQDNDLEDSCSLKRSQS

For the compound `Cn1cc(C(=O)OCC2CCN(CCNS(C)(=O)=O)CC2)c2ccccc21` [GR, GR113808], at 5-HT4 receptor [1], it took 5.55 nM to reach half-maximal inhibition (IC50).
`COCCCN1CCC(NC(=O)c2cc(Cl)c(N)c3c2OCC3)CC1` [Ppr, prucalopride] came in with an EC50 on 5-HT4 receptor [2] of 10.2 nM.
